Measurements published in the supplement of paper PMC10307832.

Assays:
Assay in all cases: relative viability (nuclei count vs DMSO), 5 days (fraction); higher = more cells survive
BEN = tested on: BEN
Outline: (§1)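 The day after seeding in 1536-well plates, lung cancer cell lines were treated by pin tool with a single drug, or with a fixed anchor-drug dose together with five library-drug doses (not always all listed) in √10 steps. After 5 days, a combined fix-and-stain solution (final 0.05% Triton X-100, 1% formaldehyde, 1 ug/ml Hoechst) was added. Nuclei counted on 4× images gave relative viability as treated counts over vehicle counts, reported as the median of duplicate plates.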

CAL-12T = tested on: CAL-12T
Outline: as §1

COR-L23 = tested on: COR-L23
Outline: as §1

HCC-366 = tested on: HCC-366
Outline: as §1

LOU-NH91 = tested on: LOU-NH91
Outline: as §1

LU99A = tested on: LU99A
Outline: as §1

NCI-H1355 = tested on: NCI-H1355
Outline: as §1

NCI-H1437 = tested on: NCI-H1437
Outline: as §1

NCI-H1563 = tested on: NCI-H1563
Outline: as §1

NCI-H1650 = tested on: NCI-H1650
Outline: as §1

NCI-H1651 = tested on: NCI-H1651
Outline: as §1

NCI-H1734 = tested on: NCI-H1734
Outline: as §1

NCI-H1793 = tested on: NCI-H1793
Outline: as §1

NCI-H1975 = tested on: NCI-H1975
Outline: as §1

NCI-H2023 = tested on: NCI-H2023
Outline: as §1

NCI-H2085 = tested on: NCI-H2085
Outline: as §1

NCI-H358 = tested on: NCI-H358
Outline: as §1

NCI-H460 = tested on: NCI-H460
Outline: as §1

NCI-H838 = tested on: NCI-H838
Outline: as §1

SK-LU-1 = tested on: SK-LU-1
Outline: as §1

Structure (SMILES): Cc1sc2c(c1C)C(c1ccc(Cl)cc1)=N[C@@H](CC(=O)OC(C)(C)C)c1nnc(C)n1-2 [JQ1] + CS(=O)(=O)CCNCc1ccc(-c2ccc3ncnc(Nc4ccc(OCc5cccc(F)c5)c(Cl)c4)c3c2)o1 [Lapatinib] (partner 2 µM)
- relative viability (BEN; first compound 0.04 µM): 0.676
- relative viability (BEN; first compound 0.1265 µM): 0.561
- relative viability (BEN; first compound 0.4 µM): 0.427
- relative viability (BEN; first compound 1.265 µM): 0.292
- relative viability (BEN; first compound 4 µM): 0.266
- relative viability (CAL-12T; first compound 0.04 µM): 0.748
- relative viability (CAL-12T; first compound 0.4 µM): 0.541
- relative viability (CAL-12T; first compound 1.265 µM): 0.383
- relative viability (CAL-12T; first compound 4 µM): 0.463
- relative viability (COR-L23; first compound 0.04 µM): 0.926
- relative viability (COR-L23; first compound 0.1265 µM): 0.782
- relative viability (COR-L23; first compound 0.4 µM): 0.942
- relative viability (COR-L23; first compound 1.265 µM): 0.773
- relative viability (COR-L23; first compound 4 µM): 0.623
- relative viability (HCC-366; first compound 0.04 µM): 1.02
- relative viability (HCC-366; first compound 0.4 µM): 0.877
- relative viability (HCC-366; first compound 1.265 µM): 0.461
- relative viability (HCC-366; first compound 4 µM): 0.472
- relative viability (LOU-NH91; first compound 0.04 µM): 0.787
- relative viability (LOU-NH91; first compound 0.1265 µM): 0.679
- relative viability (LOU-NH91; first compound 0.4 µM): 0.624
- relative viability (LOU-NH91; first compound 1.265 µM): 0.501
- relative viability (LOU-NH91; first compound 4 µM): 0.392
- relative viability (LU99A; first compound 0.04 µM): 1.14
- relative viability (LU99A; first compound 0.1265 µM): 0.933
- relative viability (LU99A; first compound 0.4 µM): 0.902
- relative viability (LU99A; first compound 1.265 µM): 0.316
- relative viability (LU99A; first compound 4 µM): 0.217
- relative viability (NCI-H1355; first compound 0.04 µM): 0.967
- relative viability (NCI-H1355; first compound 0.1265 µM): 0.973
- relative viability (NCI-H1355; first compound 0.4 µM): 0.956
- relative viability (NCI-H1355; first compound 1.265 µM): 0.765
- relative viability (NCI-H1355; first compound 4 µM): 0.596
- relative viability (NCI-H1437; first compound 0.04 µM): 0.72
- relative viability (NCI-H1437; first compound 0.1265 µM): 0.463
- relative viability (NCI-H1437; first compound 0.4 µM): 0.403
- relative viability (NCI-H1437; first compound 1.265 µM): 0.194
- relative viability (NCI-H1437; first compound 4 µM): 0.216
- relative viability (NCI-H1563; first compound 0.04 µM): 0.89
- relative viability (NCI-H1563; first compound 0.1265 µM): 0.72
- relative viability (NCI-H1563; first compound 0.4 µM): 0.662
- relative viability (NCI-H1563; first compound 1.265 µM): 0.717
- relative viability (NCI-H1563; first compound 4 µM): 0.771
- relative viability (NCI-H1650; first compound 0.04 µM): 0.704
- relative viability (NCI-H1650; first compound 0.1265 µM): 0.469
- relative viability (NCI-H1650; first compound 0.4 µM): 0.316
- relative viability (NCI-H1650; first compound 1.265 µM): 0.204
- relative viability (NCI-H1650; first compound 4 µM): 0.253
- relative viability (NCI-H1651; first compound 0.04 µM): 0.656
- relative viability (NCI-H1651; first compound 0.1265 µM): 0.706
- relative viability (NCI-H1651; first compound 0.4 µM): 0.481
- relative viability (NCI-H1651; first compound 1.265 µM): 0.365
- relative viability (NCI-H1651; first compound 4 µM): 0.408
- relative viability (NCI-H1734; first compound 0.04 µM): 1.08
- relative viability (NCI-H1734; first compound 0.1265 µM): 0.908
- relative viability (NCI-H1734; first compound 0.4 µM): 1.03
- relative viability (NCI-H1734; first compound 1.265 µM): 0.657
- relative viability (NCI-H1734; first compound 4 µM): 1.04
- relative viability (NCI-H1793; first compound 0.04 µM): 0.617
- relative viability (NCI-H1793; first compound 0.1265 µM): 0.776
- relative viability (NCI-H1793; first compound 0.4 µM): 0.805
- relative viability (NCI-H1793; first compound 1.265 µM): 0.652
- relative viability (NCI-H1793; first compound 4 µM): 0.576
- relative viability (NCI-H1975; first compound 0.04 µM): 0.85
- relative viability (NCI-H1975; first compound 0.1265 µM): 0.551
- relative viability (NCI-H1975; first compound 0.4 µM): 0.565
- relative viability (NCI-H1975; first compound 1.265 µM): 0.351
- relative viability (NCI-H1975; first compound 4 µM): 0.333
- relative viability (NCI-H2023; first compound 0.04 µM): 0.738
- relative viability (NCI-H2023; first compound 0.1265 µM): 0.463
- relative viability (NCI-H2023; first compound 0.4 µM): 0.443
- relative viability (NCI-H2023; first compound 1.265 µM): 0.334
- relative viability (NCI-H2023; first compound 4 µM): 0.258
- relative viability (NCI-H2085; first compound 0.04 µM): 0.748
- relative viability (NCI-H2085; first compound 0.1265 µM): 0.723
- relative viability (NCI-H2085; first compound 0.4 µM): 0.621
- relative viability (NCI-H2085; first compound 1.265 µM): 0.409
- relative viability (NCI-H2085; first compound 4 µM): 0.396
- relative viability (NCI-H358; first compound 0.04 µM): 0.467
- relative viability (NCI-H358; first compound 0.1265 µM): 0.494
- relative viability (NCI-H358; first compound 0.4 µM): 0.647
- relative viability (NCI-H358; first compound 1.265 µM): 0.561
- relative viability (NCI-H358; first compound 4 µM): 0.577
- relative viability (NCI-H460; first compound 0.04 µM): 0.887
- relative viability (NCI-H460; first compound 0.1265 µM): 0.465
- relative viability (NCI-H460; first compound 0.4 µM): 0.536
- relative viability (NCI-H460; first compound 1.265 µM): 0.217
- relative viability (NCI-H460; first compound 4 µM): 0.169
- relative viability (NCI-H838; first compound 0.04 µM): 0.991
- relative viability (NCI-H838; first compound 0.1265 µM): 0.462
- relative viability (NCI-H838; first compound 0.4 µM): 0.454
- relative viability (NCI-H838; first compound 1.265 µM): 0.237
- relative viability (NCI-H838; first compound 4 µM): 0.191
- relative viability (SK-LU-1; first compound 0.04 µM): 0.891
- relative viability (SK-LU-1; first compound 0.1265 µM): 0.709
- relative viability (SK-LU-1; first compound 0.4 µM): 0.838
- relative viability (SK-LU-1; first compound 1.265 µM): 0.388
- relative viability (SK-LU-1; first compound 4 µM): 0.271
